Data reported in patent publication US20230414564A1, “BLUE LIGHT OXIDATION INHIBITOR AND SCREENING METHOD FOR SAME” (SHISEIDO COMPANY, LTD., priority 2020, published 2023).
“Also recorded” adds a separate entry of the source.

Legend:
[1] = UPE count method (in vitro), linoleic acid mixture irradiated with blue light or UVA; conditions: for blue light oxidation-inhibiting effect (rate of change in blue light-induced UPE): 5 wt % aqueous solution of candidate in linoleic acid mixture, blue light 430 nm LED 6 mW/cm^2, 10 minutes, UPE integrated for 300 seconds; for inhibiting effect against blue light oxidation compared with inhibiting effect against oxidation by UVA (UPE): linoleic acid mixture, blue light 430 nm vs UVA 300 to 400 nm
Description: The candidate substances listed in Table 1 were added to ultrapure water to prepare 5 wt % aqueous solutions as samples.
The samples were prepared by mixing the substances in the following compositions with linoleic acid and oleic acid as biological components. As a control, ultrapure water was used instead of a 5% aqueous solution of the candidate substance.
A 2 mL portion of the sample prepared by the method described above was added to a plastic container and irradiated with 6 mW/cm^2 blue light (430 nm LED, CL-H1-430-9-1, Asahi Spectra Co., Ltd.) using an LED light source (CL-1501, Asahi Spectra Co., Ltd.), for a period of 10 minutes. The experiment was conducted while shielded, to exclude the effects of light of other wavelengths. For the control, ultrapure water was added instead of the starting material aqueous solution.
The irradiated sample was transferred to a quartz glass container and set in the black box of a photon counter (Tohoku Electronic Industrial Co.). Photon counting of UPE was initiated one minute after irradiation was complete. UPE was detected by a built-in photomultiplier tube (PMT, R2257P, Hamamatsu Photonics, K.K.) in the photon counter, with measurement being conducted while shielded.
The integrated value of UPE intensity for 300 seconds after the start of UPE measurement was determined and the rate of change in UPE was calculated by formula 2, to evaluate the oxidative stress inhibiting effect.
Rate of change in UPE=(UPE intensity of material added sample−UPE intensity of control sample (non-irradiated))−(UPE intensity of control sample−UPE intensity of control sample (non-irradiated)) Formula 2: […]

[2] = DPPH radical scavenging rate (DPPH Antioxidant Assay Kit); conditions: 5 wt %, 1 wt % and 0.2 wt % aqueous solutions; 30 minutes at 25° C.; absorbance at 517 nm
Excerpt: Methods for measuring oxidation inhibiting effects by radical scavenging rate evaluation are known. The present inventors therefore examined oxidation inhibiting effects of the aforementioned candidate substances at different concentrations, by the following procedure using a DPPH Antioxidant Assay Kit (Dojindo Laboratories).
The candidate substances of Example 1 were used as 5 wt %, 1 wt % and 0.2 wt % aqueous solutions. Blank 1, Blank 2, Sample and Sample Blank Solution listed in Table 3 were prepared by the manufacturer's protocol described in general below, and the radical scavenging rates were calculated.
• 1. Each candidate substance was loaded into a 96 well plate as a 5 wt %, 1 wt % or 0.2 wt % aqueous solution. • 2. Water was added to Blank 1 and Blank 2 at 20 μl each. • 3. Assay Buffer was added at 80 μl to each well. • 4. After adding 100 μl of ethanol to Blank 2 and the Sample blank, it was thoroughly mixed by pipetting. • After adding 100 μl of DPPH working solution to the sample and Blank1, it was thoroughly mixed by pipetting. • 6. The plate was incubated for 30 minutes at 25° C. in a dark environment. • 7. The absorbance at 517 nm was measured with a plate reader (Spectramax 250, Molecular Devices). • 8. The radical scavenging rate (%) of each sample was calculated by the following formula 3.
Radical scavenging rate (%)=[…]×100 Formula 3:
(ACS=Blank1−Blank2, AS=Sample−Sample Blank)

[3] = UPE count method (in vitro), linoleic acid mixture irradiated with blue light or UVA; conditions: 5 wt % aqueous solution in linoleic acid mixture; UVA lamp 300 to 400 nm 3.5 mW/cm^2
human skin tissue = test: Measurement of oxidative stress by UPE imaging on human skin tissue; conditions: 20 μL of 5% aqueous solution on stratum corneum side, 40 minutes; blue light 430 nm 6 mW/cm^2, 10 minutes
Description: A 20 μL aqueous solution of 5% hypotaurine was applied to the center of the stratum corneum side of human skin tissue (KAC Co., dorsal region), and allowed to stand for 40 minutes while shielded.
After irradiation with blue light (430 nm LED, 6 mW/cm^2) for 10 minutes, the hypotaurine aqueous solution was wiped off and immediately observed by UPE imaging using a high-sensitivity cooled CCD camera (850S CCD42-40, Spectral Instruments Inc.), while shielded (photographing time: 10 minutes).

Row | Compound | blue light oxidation-inhibiting effect (rate of change in blue light-induced UPE) [1] | DPPH radical scavenging power (radical scavenging rate) [2] | blue light oxidation-inhibiting effect (rate of change in blue light-induced UPE) ([1]; listed as ascorbic acid glucoside) | blue light oxidation-inhibiting effect (rate of change in blue light-induced UPE) ([1]; listed as cysteine) | UV oxidation inhibiting effect (rate of change in UV light-induced UPE) [3] | UPE intensity after blue light irradiation (UPE imaging) (human skin tissue) | inhibiting effect against blue light oxidation compared with inhibiting effect against oxidation by UVA (UPE) [1]
1 | O=C1O[C@H]([C@@H](O)CO)C(O)=C1O [L(+)-ascorbic acid, L(+)-Ascorbic acid] | high blue light oxidation-inhibiting effect; also recorded: excellent blue light oxidation-inhibiting effects | high radical scavenging power | – | – | – | – | –
2 | O=C1O[C@H]([C@@H](O)CO)C(O)=C1O[C@H]1O[C@H](CO)[C@@H](O)[C@H](O)[C@H]1O [L-ascorbic acid glucoside, L-Ascorbic acid glucoside, reference compound] | not found to have significant blue light oxidation-inhibiting effects | high radical scavenging power | little of the blue light oxidation-inhibiting effect | – | – | – | –
3 | N[C@@H](CS)C(=O)O [L-cysteine, L-Cysteine, reference compound] | not found to have significant blue light oxidation-inhibiting effects | high radical scavenging power | – | little of the inhibiting effect against blue light oxidation | – | – | –
4 | CC(C)(CO)[C@@H](O)C(=O)NCCC(=O)NCCSS(=O)(=O)[O-].CC(C)(CO)[C@@H](O)C(=O)NCCC(=O)NCCSS(=O)(=O)[O-].[Ca+2] [calcium pantetheine-S-sulfonate] | high blue light oxidation-inhibiting effect; also recorded: excellent blue light oxidation-inhibiting effects | High radical scavenging power was not observed | – | – | UV oxidation inhibiting effect was found | – | –
5 | NCCS(=O)O [hypotaurine, Hypotaurine] | high inhibiting effect against blue light oxidation; also recorded: excellent blue light oxidation-inhibiting effects | high radical scavenging power | – | – | – | lowered | higher than the inhibiting effect against oxidation by UVA
6 | NCCS(=O)(O)=S [thiotaurine, Thiotaurine] | high inhibiting effect against blue light oxidation; also recorded: excellent blue light oxidation-inhibiting effects | High radical scavenging power was not observed | – | – | – | – | higher than the inhibiting effect against oxidation by UVA
